According to patent publication US20090281049A1, “New use of ginsenoside compound-k in manufacturing medicaments” (priority 2006, published 2009):

Columns and labels:
[1] = tested on: Adjuvant Arthritis in rats; test: Treatment effect on adjuvant induced adjuvant arthritis in rats; type: in vivo, Rat, SD strain
Description: Freund's Adjuvant Complete, purchased from Sigma Company, was injected into the plantar surface of the right hind paw by 0.1 ml in order to induce inflammation in rats.
Animals were firstly divided into large dose group: 10 mg/kg, iv, medium dose group: 5 mg/kg, iv, small dose group: 2.5 mg/kg, iv, Indomethacin group: 1 mg/kg, po, Tripterygium Wilfordii Hook group: 1.5 mg/kg, po. and blank control group: physiological saline 10 mg/kg, iv. The volume of the right hind paw of the rats was measured by using hydroplethismometer before inflammation induced. Then 0.1 ml Freund's Adjuvant Complete was injected into the plantar surface of the right hind paw in order to induce inflammation in rats. 20 days after inflammation induced, the rats were grouped by the foregoing division method and to be administered for 8 days. The volume of paw was measured in regular intervals. Swell rate and inhibition rate were calculated with the same method as the foregoing. Differences among groups were compared with t test.

[2] = tested on: Collagen Type II (CII) induced arthritis in rats; test: Treatment effect on Collagen Type II (CII) induced arthritis in rats; type: in vivo, Rat, SD strain
Description: Inflammation-induced agent: Collagen Type II was dissolved in 0.1 mol/L acetic acid to make final concentration be 2 mg/ml collagen solution, and held in 4° C. overnight. The Collagen Type II solution was added to cold Freund's Adjuvant Incomplete by drops (Collagen Type II: Freund's Adjuvant Incomplete=1:1) on the next day, emulsified completely (Type II Collagen solution: Freund's Adjuvant Incomplete=1:1), and the final concentration of Collagen Type II was 1 mg/ml. The Collagen Type II emulsion was reserved in a refrigerator at 4° C.
Immune method: Each rat was immunized by being injected subcutaneously at 5 points on the back with 0.1 ml emulsion in each point, total of […] (contained 0.5 mg Collagen Type II), and immunized again in the same way 7 days later. An emulsion of 0.1 mol/L acetic acid and Freund's Adjuvant Incomplete was injected in control group. The swell values of the arthrosis in right hind ankle and foot were measured respectively by using a hydroplethismometer before injection and 20 days after immunization.
Collagen Type II (CII) and Freund's Adjuvant Incomplete were ground into emulsion and were injected subcutaneously into the back of the rats for immunization. Until the 19th day, most parts of the pedal joint of the rats began to swell. Picked 40 rats out which were with swelled pedal joint and divided them into […] subsequently, i.e. 8 rats in each group. They are respectively […]: Ginsenoside Compound-K, 10 mg/kg, iv, medium dose group: Ginsenoside Compound-K, 5 mg/kg, iv, small dose group: Ginsenoside Compound-K, 2.5 mg/kg, iv, Enbrel group: 9 mg/kg, sc, Tripterygium Wilfordii Hook group: 1.5 mg/kg, po. and blank control group: physiological saline 10 mg/kg, iv. The rats were administered for 8 days consecutively. The swell value of the foot was measured respectively by using hydroplethismometer before inflammation induced and at different time after the onset of symptoms, then calculated swell rate and prohibition rate, and compared the differences among groups with t test.

Compound: CC(C)=CCC[C@](C)(O[C@@H]1O[C@H](CO)[C@@H](O)[C@H](O)[C@H]1O)[C@H]1CC[C@]2(C)[C@@H]1[C@H](O)C[C@@H]1[C@@]3(C)CC[C@H](O)C(C)(C)[C@@H]3CC[C@]12C [Ginsenoside Compound-K, ginsenoside Compound-K]
- swell value ([1]; 2.5 mg/kg iv, 0 day): 1.06 ± 0.09 mL
- inhibition rate ([1]; 2.5 mg/kg iv, 19 day): <14.36> %
- swell rate ([1]; 2.5 mg/kg iv, 19 day): (84.26 ± 14.31) %
- swell value ([1]; 2.5 mg/kg iv, 19 day): 1.96 ± 0.16 mL
- inhibition rate ([1]; 2.5 mg/kg iv, 21 day): <15.81> %
- swell rate ([1]; 2.5 mg/kg iv, 21 day): (89.42 ± 18.47) %
- swell value ([1]; 2.5 mg/kg iv, 21 day): 2.00 ± 0.07 mL
- inhibition rate ([1]; 2.5 mg/kg iv, 23 day): <24.02> %
- swell rate ([1]; 2.5 mg/kg iv, 23 day): (80.92 ± 16.84) %
- swell value ([1]; 2.5 mg/kg iv, 23 day): 1.91 ± 0.08 mL
- inhibition rate ([1]; 2.5 mg/kg iv, 26 day): <27.71> %
- swell rate ([1]; 2.5 mg/kg iv, 26 day): (81.13 ± 10.03) %
- swell value ([1]; 2.5 mg/kg iv, 26 day): 1.92 ± 0.08 mL
- inhibition rate ([1]; 2.5 mg/kg iv, 30 day): <19.36> %
- swell rate ([1]; 2.5 mg/kg iv, 30 day): (84.80 ± 19.66) %
- swell value ([1]; 2.5 mg/kg iv, 30 day): 1.96 ± 0.16 mL
- swell value ([1]; 5 mg/kg iv, 0 day): 1.10 ± 0.09 mL
- inhibition rate ([1]; 5 mg/kg iv, 19 day): <17.31> %
- swell rate ([1]; 5 mg/kg iv, 19 day): (81.36 ± 13.10) %
- swell value ([1]; 5 mg/kg iv, 19 day): 2.00 ± 0.12 mL
- inhibition rate ([1]; 5 mg/kg iv, 21 day): <20.85> %
- swell rate ([1]; 5 mg/kg iv, 21 day): (84.07 ± 18.91) %
- swell value ([1]; 5 mg/kg iv, 21 day): 2.03 ± 0.20 mL
- inhibition rate ([1]; 5 mg/kg iv, 23 day): <23.19> %
- swell rate ([1]; 5 mg/kg iv, 23 day): (81.81 ± 14.58) %
- swell value ([1]; 5 mg/kg iv, 23 day): 2.01 ± 0.23 mL
- inhibition rate ([1]; 5 mg/kg iv, 26 day): <27.40> %
- swell rate ([1]; 5 mg/kg iv, 26 day): (81.48 ± 11.30) %
- swell value ([1]; 5 mg/kg iv, 26 day): 2.00 ± 0.19 mL
- inhibition rate ([1]; 5 mg/kg iv, 30 day): <20.33> %
- swell rate ([1]; 5 mg/kg iv, 30 day): (83.77 ± 17.65) %
- swell value ([1]; 5 mg/kg iv, 30 day): 2.03 ± 0.25 mL
- swell value ([1]; 10 mg/kg iv, 0 day): 1.05 ± 0.09 mL
- inhibition rate ([1]; 10 mg/kg iv, 19 day): <9.69> %
- swell rate ([1]; 10 mg/kg iv, 19 day): (88.85 ± 23.27) %
- swell value ([1]; 10 mg/kg iv, 19 day): 1.97 ± 0.24 mL
- inhibition rate ([1]; 10 mg/kg iv, 21 day): <31.57> %
- swell rate ([1]; 10 mg/kg iv, 21 day): (72.69 ± 29.97) %
- swell value ([1]; 10 mg/kg iv, 21 day): 1.81 ± 0.33 mL
- inhibition rate ([1]; 10 mg/kg iv, 23 day): <31.92> %
- swell rate ([1]; 10 mg/kg iv, 23 day): (72.50 ± 22.18) %
- swell value ([1]; 10 mg/kg iv, 23 day): 1.80 ± 0.21 mL
- inhibition rate ([1]; 10 mg/kg iv, 26 day): <36.15> %
- swell rate ([1]; 10 mg/kg iv, 26 day): (71.66 ± 24.46) %
- swell value ([1]; 10 mg/kg iv, 26 day): 1.79 ± 0.24 mL
- inhibition rate ([1]; 10 mg/kg iv, 30 day): <32.32> %
- swell rate ([1]; 10 mg/kg iv, 30 day): (71.17 ± 17.97) %
- swell value ([1]; 10 mg/kg iv, 30 day): 1.80 ± 0.26 mL
- overall treatment effect on Adjuvant Arthritis ([1]; rats, 10, 5, 2.5 mg/kg iv for 8 days from day 20): able to cure Adjuvant Arthritis in rats
- swell value ([2]; 2.5 mg/kg iv, 0 day): 1.03 ± 0.05 mL
- inhibition rate ([2]; 2.5 mg/kg iv, 20 day): <18.95> %
- swell rate ([2]; 2.5 mg/kg iv, 20 day): (43.79 ± 12.08%
- swell value ([2]; 2.5 mg/kg iv, 20 day): 1.48 ± 0.11 mL
- inhibition rate ([2]; 2.5 mg/kg iv, 22 day): <19.94> %
- swell rate ([2]; 2.5 mg/kg iv, 22 day): (48.22 ± 10.27) %
- swell value ([2]; 2.5 mg/kg iv, 22 day): 1.53 ± 0.06 mL
- inhibition rate ([2]; 2.5 mg/kg iv, 23 day): <17.70> %
- swell rate ([2]; 2.5 mg/kg iv, 23 day): (51.23 ± 9.82) %
- swell value ([2]; 2.5 mg/kg iv, 23 day): 1.56 ± 0.06 mL
- inhibition rate ([2]; 2.5 mg/kg iv, 25 day): <16.26> %
- swell rate ([2]; 2.5 mg/kg iv, 25 day): (51.66 ± 18.36) %
- swell value ([2]; 2.5 mg/kg iv, 25 day): 1.56 ± 0.16 mL
- inhibition rate ([2]; 2.5 mg/kg iv, 28 day): <20.52> %
- swell rate ([2]; 2.5 mg/kg iv, 28 day): (41.04 ± 10.92) %
- swell value ([2]; 2.5 mg/kg iv, 28 day): 1.45 ± 0.10 mL
- inhibition rate ([2]; 2.5 mg/kg iv, 31 day): <22.73> %
- swell rate ([2]; 2.5 mg/kg iv, 31 day): (37.86 ± 11.18) %
- swell value ([2]; 2.5 mg/kg iv, 31 day): 1.42 ± 0.10 mL
- swell value ([2]; 5 mg/kg iv, 0 day): 1.03 ± 0.05 mL
- inhibition rate ([2]; 5 mg/kg iv, 20 day): <9.35> %
- swell rate ([2]; 5 mg/kg iv, 20 day): (48.97 ± 27.82%
- swell value ([2]; 5 mg/kg iv, 20 day): 1.52 ± 0.21 mL
- inhibition rate ([2]; 5 mg/kg iv, 22 day): <12.39> %
- swell rate ([2]; 5 mg/kg iv, 22 day): (52.77 ± 21.55) %
- swell value ([2]; 5 mg/kg iv, 22 day): 1.56 ± 0.15 mL
- inhibition rate ([2]; 5 mg/kg iv, 23 day): <13.87> %
- swell rate ([2]; 5 mg/kg iv, 23 day): (53.62 ± 14.27) %
- swell value ([2]; 5 mg/kg iv, 23 day): 1.58 ± 0.13 mL
- inhibition rate ([2]; 5 mg/kg iv, 25 day): <15.62> %
- swell rate ([2]; 5 mg/kg iv, 25 day): (52.06 ± 18.56) %
- swell value ([2]; 5 mg/kg iv, 25 day): 1.56 ± 0.19 mL
- inhibition rate ([2]; 5 mg/kg iv, 28 day): <13.17> %
- swell rate ([2]; 5 mg/kg iv, 28 day): (44.84 ± 25.91) %
- swell value ([2]; 5 mg/kg iv, 28 day): 1.49 ± 0.28 mL
- inhibition rate ([2]; 5 mg/kg iv, 31 day): <15.64> %
- swell rate ([2]; 5 mg/kg iv, 31 day): (41.34 ± 13.83) %
- swell value ([2]; 5 mg/kg iv, 31 day): 1.45 ± 0.13 mL
- swell value ([2]; 10 mg/kg iv, 0 day): 1.04 ± 0.19 mL
- inhibition rate ([2]; 10 mg/kg iv, 20 day): <12.61> %
- swell rate ([2]; 10 mg/kg iv, 20 day): (47.22 ± 18.60) %
- swell value ([2]; 10 mg/kg iv, 20 day): <1.52 ± 0.19 mL
- inhibition rate ([2]; 10 mg/kg iv, 22 day): <16.28> %
- swell rate ([2]; 10 mg/kg iv, 22 day): (50.43 ± 9.45) %
- swell value ([2]; 10 mg/kg iv, 22 day): 1.54 ± 0.12 mL
- inhibition rate ([2]; 10 mg/kg iv, 23 day): <19.28> %
- swell rate ([2]; 10 mg/kg iv, 23 day): (50.25 ± 22.06) %
- swell value ([2]; 10 mg/kg iv, 23 day): 1.54 ± 0.10 mL
- inhibition rate ([2]; 10 mg/kg iv, 25 day): <17.95> %
- swell rate ([2]; 10 mg/kg iv, 25 day): (50.62 ± 21.43) %
- swell value ([2]; 10 mg/kg iv, 25 day): 1.54 ± 0.12 mL
- inhibition rate ([2]; 10 mg/kg iv, 28 day): <22.09> %
- swell rate ([2]; 10 mg/kg iv, 28 day): (40.23 ± 16.26) %
- swell value ([2]; 10 mg/kg iv, 28 day): 1.44 ± 0.13 mL
- inhibition rate ([2]; 10 mg/kg iv, 31 day): <27.67> %
- swell rate ([2]; 10 mg/kg iv, 31 day): (35.44 ± 22.50) %
- swell value ([2]; 10 mg/kg iv, 31 day): 1.38 ± 0.11 mL
- overall treatment effect on Collagen Type II induced arthritis ([2]; rats, 10, 5, 2.5 mg/kg iv for 8 days): able to cure Collagen Type II induced arthritis
